Experimental data from patent US9927424B2, “Assays for identifying compounds that modulate bitter taste” (Chromocell Corporation, priority 2013, dated 2018).

Key:
Type in all cases: cell-based
TAS2R4 = target: T1, TAS2R4 (Homo sapiens, UniProt Q9NYW5); experiment: Calcium fluorescence functional assay, TAS2R4 cell line with mouse Gα15; settings: for TAS2R4 bitter receptor activity (functional response): 20 mM tastant, change in intracellular calcium; for EC50: approximately, increasing concentrations of tastant
T1 construct: expressed in transfected cells
T1 sequence (Q9NYW5 1-299): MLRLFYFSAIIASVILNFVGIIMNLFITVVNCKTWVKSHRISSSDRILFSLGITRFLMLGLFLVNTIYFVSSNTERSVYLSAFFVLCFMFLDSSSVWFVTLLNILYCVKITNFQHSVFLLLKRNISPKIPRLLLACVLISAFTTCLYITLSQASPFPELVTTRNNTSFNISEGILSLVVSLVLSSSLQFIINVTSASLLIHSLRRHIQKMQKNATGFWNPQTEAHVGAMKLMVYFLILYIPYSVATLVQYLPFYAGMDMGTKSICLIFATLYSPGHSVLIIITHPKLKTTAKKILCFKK
Protocol: (§1) A panel of cell lines expressing eight specific bitter taste receptors, a subset of the panel of twenty-five bitter receptors described in International Patent Application Publication WO 2010/088633 (see, e.g., Example 26), was used for the purpose of these analyses. Accordingly, each cell line of the panel expressed a human bitter taste receptor and mouse Gα15 signaling protein.
(§2) Each of the Examples below utilized the following functional assay: • Day 1: Stable cell lines were seeded onto black wall/clear bottom 96-well, plates (e.g., Corning, 3904). Approximately 40K cells were added per well and incubated at 37° C., 5% CO2 overnight in cell growth media (DMEM (Sigma, D5796) supplemented with 10% Fetal Bovine Serum (Sigma, 5178), 2 mM Glutamine (Sigma, G7513)). • Day 2: Growth media was discarded and cells were incubated at 37° C., 5% CO2 for 60 minutes in 100 ul of load solution containing 1× Ca-3 dye (Molecular Devices, R8090), 1% DMSO in buffer containing 130 mM NaCl, 2 mM CaCl2, 5 mM KCl, 1.2 mM MgCl2, 10 mM HEPES and 10 mM Glucose (pH 7.0). Probenecid was not included in the load solution. • Functional assay: After dye loading, cell plates were placed in a fluorescent plate reader (e.g., FDSS6000 (Hamamatsu, Japan)) and receptor stimulation was measured by adding 50 ul of 3× concentrated ligand/agonist stock. Fluorescence was monitored continuously for 10 s before agonist addition and for 100-250 s after stimulation with agonist.
(§3) Receptor Activation is defined as follows: • % Activation=[((Maximum signal fluorescence−Minimum signal fluorescence)−(Maximum control fluorescence−Minimum control fluorescence))/(Maximum buffer fluorescence−Minimum buffer fluorescence)]*100 • Functional Response=[(Maximum signal fluorescence−Minimum signal fluorescence)−(Maximum control fluorescence−Minimum control fluorescence)] • Signal fluorescence: refers to the change in fluorescence seen with addition of ligand • Control fluorescence: refers to the change in fluorescence seen with addition of buffer (negative control) • Calcium signals from ligand and control were normalized to the basal fluorescence of the cells prior to the stimulation.
(§4) A concentration analysis was performed and EC50 values were calculated by nonlinear regression using the formula: Y=Bottom+(Top−Bottom)/(1+10^((Log EC50−X)*Hill Slope)), X=log of dose or concentration, Y=Response (increasing as X increases), Top=maximum signal, Bottom=minimum signal. EC50 (half maximal effective concentration) refers to the molar concentration of the agonist which produces 50% of the maximum possible effective response from that agonist.

TAS2R9 = target: T2, TAS2R9 (Homo sapiens, UniProt Q9NYW1); experiment: Calcium fluorescence functional assay, TAS2R9 cell line with mouse Gα15; settings: for TAS2R9 bitter receptor activity (functional response): 20 mM tastant, change in intracellular calcium; for EC50: approximately, increasing concentrations of tastant
T2 construct: expressed in transfected cells
T2 sequence (Q9NYW1 1-312): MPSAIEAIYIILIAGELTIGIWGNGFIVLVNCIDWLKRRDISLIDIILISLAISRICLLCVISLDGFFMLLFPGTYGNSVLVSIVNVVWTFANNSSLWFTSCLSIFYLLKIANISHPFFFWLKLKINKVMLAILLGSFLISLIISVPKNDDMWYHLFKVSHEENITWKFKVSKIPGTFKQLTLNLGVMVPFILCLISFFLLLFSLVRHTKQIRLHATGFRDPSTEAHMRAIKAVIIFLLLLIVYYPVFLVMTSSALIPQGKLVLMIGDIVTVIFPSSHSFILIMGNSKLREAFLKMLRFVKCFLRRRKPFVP
Protocol: as §1, §2, §3, §4

TAS2R44 = target: T3, TAS2R44 (Homo sapiens, UniProt P59538); experiment: Calcium fluorescence functional assay, TAS2R44 cell line with mouse Gα15; settings: for TAS2R44 bitter receptor activity (functional response): 20 mM tastant, change in intracellular calcium; for EC50: approximately, increasing concentrations of tastant
T3 construct: expressed in transfected cells
T3 sequence (P59538 1-309): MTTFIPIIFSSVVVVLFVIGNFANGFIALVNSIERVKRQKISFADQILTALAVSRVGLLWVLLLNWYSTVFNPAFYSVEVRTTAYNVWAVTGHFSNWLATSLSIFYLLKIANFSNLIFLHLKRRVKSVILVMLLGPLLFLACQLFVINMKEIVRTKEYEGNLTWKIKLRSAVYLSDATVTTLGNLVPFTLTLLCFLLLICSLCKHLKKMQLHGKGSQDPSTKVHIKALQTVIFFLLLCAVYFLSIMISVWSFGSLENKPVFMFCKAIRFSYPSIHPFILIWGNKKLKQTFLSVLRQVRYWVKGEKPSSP
Protocol: as §1, §2, §3, §4

TAS2R60 = target: T4, TAS2R60 (Homo sapiens, UniProt P59551); experiment: Calcium fluorescence functional assay, TAS2R60 cell line with mouse Gα15; settings: for TAS2R60 bitter receptor activity (functional response): 20 mM tastant, change in intracellular calcium, data for potassium nitrate and potassium phosphate (dibasic) preliminary; for EC50: approximately, increasing concentrations of tastant
T4 construct: expressed in transfected cells
T4 sequence (P59551 1-318): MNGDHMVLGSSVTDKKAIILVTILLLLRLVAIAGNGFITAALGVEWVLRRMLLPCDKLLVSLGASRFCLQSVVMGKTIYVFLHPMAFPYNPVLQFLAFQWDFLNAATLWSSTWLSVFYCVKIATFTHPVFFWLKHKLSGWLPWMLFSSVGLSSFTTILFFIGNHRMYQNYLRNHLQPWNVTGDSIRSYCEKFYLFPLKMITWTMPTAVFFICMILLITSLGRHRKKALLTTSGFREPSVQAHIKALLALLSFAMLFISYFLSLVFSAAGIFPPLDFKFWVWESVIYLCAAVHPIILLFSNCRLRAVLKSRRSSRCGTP
Protocol: Accordingly, each cell line of the panel expressed a human bitter taste receptor and mouse Gα15 signaling protein.
Probenecid was not included in the load solution. • Functional assay: After dye loading, cell plates were placed in a fluorescent plate reader (e.g., FDSS6000 (Hamamatsu, Japan)) and receptor stimulation was measured by adding 50 ul of 3× concentrated ligand/agonist stock. Fluorescence was monitored continuously for 10 s before agonist addition and for 100-250 s after stimulation with agonist.
as §3
A concentration analysis was performed and EC50 values were calculated by nonlinear regression using the formula: Y=Bottom+(Top−Bottom)/(1+10^((Log EC50−X)*Hill Slope)), X=log of dose or concentration, Y=Response (increasing as X increases), Top=maximum signal, Bottom=minimum signal.

With `O=S(=O)([O-])[O-].[K+].[K+]` [potassium sulfate] the “TAS2R4 bitter receptor activity (functional response)” value (“TAS2R4 bitter receptor activity” for short) (TAS2R4) was “induced”, the “TAS2R9 bitter receptor activity (functional response)” value (“TAS2R9 bitter receptor activity” below) (TAS2R9) was “induced” and the “TAS2R44 bitter receptor activity (functional response)” value (shortened to “TAS2R44 bitter receptor activity”) (TAS2R44) was “induced”. For the same compound, the “TAS2R60 bitter receptor activity (functional response)” value (from here on “TAS2R60 bitter receptor activity”) (TAS2R60) was “induced”.

For `O=C([O-])c1ccccc1.[K+]` [potassium benzoate], the “TAS2R4 bitter receptor activity” value (TAS2R4) was “induced”, the EC50 (TAS2R4) was 5 to 10 mM and the “TAS2R9 bitter receptor activity” value (TAS2R9) was “induced”. For the same compound, the EC50 (TAS2R9) was 5 to 10 mM, the “TAS2R44 bitter receptor activity” value (TAS2R44) was “induced” and the EC50 (TAS2R44) was 5 to 10 mM. The “TAS2R60 bitter receptor activity” value (TAS2R60) was “induced” and the EC50 (TAS2R60) was 5 to 10 mM.

For `O=P([O-])([O-])O.[K+].[K+]` [potassium phosphate (dibasic)], the “TAS2R4 bitter receptor activity” value (TAS2R4) was “induced”, the “TAS2R9 bitter receptor activity” value (TAS2R9) was “induced” and the “TAS2R44 bitter receptor activity” value (TAS2R44) was “induced”. The “TAS2R60 bitter receptor activity” value (TAS2R60) was “induced”.

`O=C([O-])[C@H](O)[C@@H](O)[C@H](O)[C@H](O)CO.[K+]` [potassium gluconate] was tested, and the “TAS2R4 bitter receptor activity” value (TAS2R4) was “induced”, the “TAS2R9 bitter receptor activity” value (TAS2R9) was “induced” and the “TAS2R44 bitter receptor activity” value (TAS2R44) was “induced”. For the same compound, the “TAS2R60 bitter receptor activity” value (TAS2R60) was “did not induce”.

For `C/C=C/C=C/C(=O)[O-].[K+]` [potassium sorbate], the “TAS2R4 bitter receptor activity” value (TAS2R4) was “induced”, the “TAS2R9 bitter receptor activity” value (TAS2R9) was “induced” and the “TAS2R44 bitter receptor activity” value (TAS2R44) was “induced”. The “TAS2R60 bitter receptor activity” value (TAS2R60) was “induced”.

`O=[N+]([O-])[O-].[K+]` [potassium nitrate] was tested, and the “TAS2R4 bitter receptor activity” value (TAS2R4) was “induced”, the “TAS2R9 bitter receptor activity” value (TAS2R9) was “induced” and the “TAS2R44 bitter receptor activity” value (TAS2R44) was “induced”. For the same compound, the “TAS2R60 bitter receptor activity” value (TAS2R60) was “induced”.

For `CC(=O)[O-].[K+]` [potassium acetate], the “TAS2R4 bitter receptor activity” value (TAS2R4) was “induced”, the EC50 (TAS2R4) was 5 to 10 mM and the “TAS2R9 bitter receptor activity” value (TAS2R9) was “induced”. The EC50 (TAS2R9) was 5 to 10 mM, the “TAS2R44 bitter receptor activity” value (TAS2R44) was “induced” and the EC50 (TAS2R44) was 5 to 10 mM. The “TAS2R60 bitter receptor activity” value (TAS2R60) was “induced” and the EC50 (TAS2R60) was 5 to 10 mM.
